Measured values reported in publication PMC5527310, “Stringent Expression Control of Pathogenic R-body Production in Legume Symbiont Azorhizobium caulinodans” (mBio, 2017).

Target: T1, His6-PraR (Azorhizobium caulinodans, UniProt A8IG10)
T1 construct: full praR ORF, N-terminal His6 tag (pCold I, plasmid pTAC99), expressed in E. coli BLR(DE3), Ni-bead purified
Assay: EMSA, FITC-labelled reb promoter dsDNA probe
Details: inhibits PraR binding to reb promoter DNA; 2OG 0.01 to 10 mM; pH 8.0, 5 mM MgCl2, 26 °C; direct 2OG binding to PraR not measured

T1 sequence (A8IG10 entry or part of it): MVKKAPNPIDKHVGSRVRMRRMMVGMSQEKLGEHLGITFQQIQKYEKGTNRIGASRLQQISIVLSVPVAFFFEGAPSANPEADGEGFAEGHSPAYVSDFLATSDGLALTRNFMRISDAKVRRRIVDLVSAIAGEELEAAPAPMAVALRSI

## O=C(O)CCC(=O)C(=O)O [2-oxoglutarate]
  EMSA, FITC-labelled reb promoter dsDNA probe: binding of PraR to the reb promoter dsDNA probe decreased with increasing 2OG concentration
